Columns and labels:
[1] = target: Beta-1 adrenergic receptor (Homo sapiens, UniProt P08588); type: functional
[2] = target: T1, Muscarinic acetylcholine receptor M2 (Homo sapiens, UniProt P08172); type: functional, cell-based
T1 sequence (P08172 whole entry): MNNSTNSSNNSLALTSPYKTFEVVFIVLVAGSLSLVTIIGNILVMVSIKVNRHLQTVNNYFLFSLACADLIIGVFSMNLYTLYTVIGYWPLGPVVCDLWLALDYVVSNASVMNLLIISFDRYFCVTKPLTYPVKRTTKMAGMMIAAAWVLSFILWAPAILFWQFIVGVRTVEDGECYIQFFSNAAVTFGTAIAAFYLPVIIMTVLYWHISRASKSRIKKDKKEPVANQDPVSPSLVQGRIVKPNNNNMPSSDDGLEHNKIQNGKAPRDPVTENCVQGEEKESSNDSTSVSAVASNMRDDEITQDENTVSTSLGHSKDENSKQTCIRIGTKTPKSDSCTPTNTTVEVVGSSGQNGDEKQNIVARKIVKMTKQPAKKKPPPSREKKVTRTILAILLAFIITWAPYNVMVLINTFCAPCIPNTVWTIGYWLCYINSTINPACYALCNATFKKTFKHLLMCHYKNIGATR

[3] = target: T2, 5-hydroxytryptamine receptor 2B (Homo sapiens, UniProt P41595); type: functional, cell-based
T2 sequence (P41595 whole entry): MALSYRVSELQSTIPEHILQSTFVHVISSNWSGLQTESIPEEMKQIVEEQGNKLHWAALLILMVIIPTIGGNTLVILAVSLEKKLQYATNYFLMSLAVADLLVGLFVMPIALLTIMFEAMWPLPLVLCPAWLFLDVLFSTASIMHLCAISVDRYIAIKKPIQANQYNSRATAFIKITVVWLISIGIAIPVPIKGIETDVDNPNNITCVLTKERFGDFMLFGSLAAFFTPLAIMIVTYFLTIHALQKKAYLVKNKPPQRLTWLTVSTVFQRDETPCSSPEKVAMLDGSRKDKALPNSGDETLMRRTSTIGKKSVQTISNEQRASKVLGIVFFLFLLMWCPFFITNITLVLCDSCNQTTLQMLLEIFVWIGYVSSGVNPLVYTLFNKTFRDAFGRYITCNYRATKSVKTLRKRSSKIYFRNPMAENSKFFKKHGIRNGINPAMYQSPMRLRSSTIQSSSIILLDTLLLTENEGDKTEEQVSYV

[4] = target: Voltage-dependent L-type calcium channel subunit alpha-1C (Rattus norvegicus, UniProt P22002); type: functional
Voltage-dependent L-type calcium channel subunit alpha-1C, sequence (P22002 whole entry): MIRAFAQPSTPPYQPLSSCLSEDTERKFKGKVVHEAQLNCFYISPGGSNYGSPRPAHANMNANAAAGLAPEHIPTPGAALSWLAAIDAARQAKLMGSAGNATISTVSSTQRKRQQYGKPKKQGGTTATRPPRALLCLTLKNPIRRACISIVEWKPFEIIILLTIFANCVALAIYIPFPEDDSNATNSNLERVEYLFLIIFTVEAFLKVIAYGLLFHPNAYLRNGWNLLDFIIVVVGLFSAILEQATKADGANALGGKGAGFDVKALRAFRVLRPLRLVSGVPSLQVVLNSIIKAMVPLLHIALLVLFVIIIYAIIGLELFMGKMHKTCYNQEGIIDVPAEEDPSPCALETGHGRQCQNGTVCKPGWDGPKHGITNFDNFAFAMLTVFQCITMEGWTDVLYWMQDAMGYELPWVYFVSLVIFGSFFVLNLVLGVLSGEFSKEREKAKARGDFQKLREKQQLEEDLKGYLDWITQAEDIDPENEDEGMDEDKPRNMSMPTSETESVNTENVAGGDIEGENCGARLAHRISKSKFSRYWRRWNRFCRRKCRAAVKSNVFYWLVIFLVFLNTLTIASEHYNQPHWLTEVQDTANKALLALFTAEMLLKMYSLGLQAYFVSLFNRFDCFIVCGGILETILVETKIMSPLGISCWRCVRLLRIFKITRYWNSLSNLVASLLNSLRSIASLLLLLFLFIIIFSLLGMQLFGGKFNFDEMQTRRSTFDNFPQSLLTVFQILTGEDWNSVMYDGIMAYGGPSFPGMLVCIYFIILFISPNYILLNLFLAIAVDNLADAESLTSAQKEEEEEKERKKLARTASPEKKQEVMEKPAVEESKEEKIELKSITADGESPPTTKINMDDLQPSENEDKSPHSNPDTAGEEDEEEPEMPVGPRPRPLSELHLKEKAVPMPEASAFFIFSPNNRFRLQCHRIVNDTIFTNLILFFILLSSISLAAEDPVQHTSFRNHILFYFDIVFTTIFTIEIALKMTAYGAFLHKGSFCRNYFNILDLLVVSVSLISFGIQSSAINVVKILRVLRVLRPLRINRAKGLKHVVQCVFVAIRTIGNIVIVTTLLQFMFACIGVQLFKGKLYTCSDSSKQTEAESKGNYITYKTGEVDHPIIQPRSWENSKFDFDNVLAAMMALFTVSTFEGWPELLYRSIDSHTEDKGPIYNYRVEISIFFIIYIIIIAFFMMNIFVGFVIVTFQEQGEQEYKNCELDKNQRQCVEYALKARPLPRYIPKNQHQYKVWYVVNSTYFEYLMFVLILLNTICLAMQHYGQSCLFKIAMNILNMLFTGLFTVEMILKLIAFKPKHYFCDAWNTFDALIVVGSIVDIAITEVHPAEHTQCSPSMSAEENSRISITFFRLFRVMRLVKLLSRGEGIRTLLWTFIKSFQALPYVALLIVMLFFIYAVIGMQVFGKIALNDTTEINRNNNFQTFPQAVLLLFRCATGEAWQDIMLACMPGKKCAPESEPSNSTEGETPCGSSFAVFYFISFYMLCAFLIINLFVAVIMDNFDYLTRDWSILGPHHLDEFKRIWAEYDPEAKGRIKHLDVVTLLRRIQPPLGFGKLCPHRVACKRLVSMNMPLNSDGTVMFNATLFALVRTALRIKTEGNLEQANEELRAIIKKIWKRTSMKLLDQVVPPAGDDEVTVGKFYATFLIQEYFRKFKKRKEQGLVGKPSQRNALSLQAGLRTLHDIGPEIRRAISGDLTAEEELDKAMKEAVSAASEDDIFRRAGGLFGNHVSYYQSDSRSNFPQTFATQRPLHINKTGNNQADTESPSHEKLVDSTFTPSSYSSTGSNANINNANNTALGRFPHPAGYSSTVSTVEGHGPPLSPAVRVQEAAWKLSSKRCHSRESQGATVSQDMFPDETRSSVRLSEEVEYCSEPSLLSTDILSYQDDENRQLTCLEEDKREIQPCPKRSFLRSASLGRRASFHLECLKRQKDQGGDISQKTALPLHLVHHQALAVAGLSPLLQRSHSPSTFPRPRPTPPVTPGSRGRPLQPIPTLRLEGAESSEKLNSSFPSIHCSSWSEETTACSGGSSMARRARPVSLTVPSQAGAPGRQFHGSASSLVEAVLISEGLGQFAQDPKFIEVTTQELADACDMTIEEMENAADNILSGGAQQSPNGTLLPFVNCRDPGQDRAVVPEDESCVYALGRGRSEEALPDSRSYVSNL

[5] = target: Cannabinoid receptor 1 (Homo sapiens, UniProt P21554); type: functional, cell-based
[6] = target: T3, B2 bradykinin receptor (Homo sapiens, UniProt P30411)
T3 sequence (P30411 whole entry): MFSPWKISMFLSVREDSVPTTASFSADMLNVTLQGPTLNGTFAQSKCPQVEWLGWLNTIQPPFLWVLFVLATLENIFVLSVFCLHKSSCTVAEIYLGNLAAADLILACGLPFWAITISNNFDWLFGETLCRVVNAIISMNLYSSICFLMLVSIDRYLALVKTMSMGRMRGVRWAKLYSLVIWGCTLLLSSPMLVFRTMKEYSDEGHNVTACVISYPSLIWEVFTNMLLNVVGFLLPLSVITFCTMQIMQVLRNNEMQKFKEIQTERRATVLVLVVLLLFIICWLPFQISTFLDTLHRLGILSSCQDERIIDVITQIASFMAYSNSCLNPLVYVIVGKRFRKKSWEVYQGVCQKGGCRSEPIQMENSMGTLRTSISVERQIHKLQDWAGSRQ

[7] = target: T2, 5-hydroxytryptamine receptor 2B; type: functional, cell-based; remark: listed apart in the source
[8] = target: T4, 5-hydroxytryptamine receptor 1A (Homo sapiens, UniProt P08908); type: functional, cell-based
T4 sequence (P08908 whole entry): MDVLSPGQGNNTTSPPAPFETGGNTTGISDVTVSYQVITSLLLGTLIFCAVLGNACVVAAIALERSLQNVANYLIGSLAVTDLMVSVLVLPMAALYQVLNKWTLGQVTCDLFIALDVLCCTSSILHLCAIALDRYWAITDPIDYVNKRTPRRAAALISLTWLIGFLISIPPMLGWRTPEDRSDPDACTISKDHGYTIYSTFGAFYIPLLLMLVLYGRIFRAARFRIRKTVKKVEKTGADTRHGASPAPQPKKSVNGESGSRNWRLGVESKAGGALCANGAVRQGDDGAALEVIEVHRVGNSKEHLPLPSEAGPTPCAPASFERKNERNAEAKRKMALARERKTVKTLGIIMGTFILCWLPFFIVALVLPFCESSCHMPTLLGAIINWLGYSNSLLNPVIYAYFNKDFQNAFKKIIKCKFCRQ

[9] = target: Gamma-aminobutyric acid receptor subunit alpha-1 (Rattus norvegicus, UniProt P62813); type: functional
Gamma-aminobutyric acid receptor subunit alpha-1, sequence (P62813 whole entry): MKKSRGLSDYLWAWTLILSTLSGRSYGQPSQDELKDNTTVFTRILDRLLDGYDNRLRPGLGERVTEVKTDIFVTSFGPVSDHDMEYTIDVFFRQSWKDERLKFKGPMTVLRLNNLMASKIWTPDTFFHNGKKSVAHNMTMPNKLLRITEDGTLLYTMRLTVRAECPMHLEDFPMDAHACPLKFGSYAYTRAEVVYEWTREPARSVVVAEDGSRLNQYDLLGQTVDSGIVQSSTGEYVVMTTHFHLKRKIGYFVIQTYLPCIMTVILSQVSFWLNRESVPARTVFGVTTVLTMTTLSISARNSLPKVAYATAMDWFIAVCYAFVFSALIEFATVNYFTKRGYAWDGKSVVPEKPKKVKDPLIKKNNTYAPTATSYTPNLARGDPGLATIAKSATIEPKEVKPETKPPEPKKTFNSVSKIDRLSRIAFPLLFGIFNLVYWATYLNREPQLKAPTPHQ

[10] = target: T5, Alpha-2A adrenergic receptor (Homo sapiens, UniProt P08913); type: functional, cell-based
T5 sequence (P08913 whole entry): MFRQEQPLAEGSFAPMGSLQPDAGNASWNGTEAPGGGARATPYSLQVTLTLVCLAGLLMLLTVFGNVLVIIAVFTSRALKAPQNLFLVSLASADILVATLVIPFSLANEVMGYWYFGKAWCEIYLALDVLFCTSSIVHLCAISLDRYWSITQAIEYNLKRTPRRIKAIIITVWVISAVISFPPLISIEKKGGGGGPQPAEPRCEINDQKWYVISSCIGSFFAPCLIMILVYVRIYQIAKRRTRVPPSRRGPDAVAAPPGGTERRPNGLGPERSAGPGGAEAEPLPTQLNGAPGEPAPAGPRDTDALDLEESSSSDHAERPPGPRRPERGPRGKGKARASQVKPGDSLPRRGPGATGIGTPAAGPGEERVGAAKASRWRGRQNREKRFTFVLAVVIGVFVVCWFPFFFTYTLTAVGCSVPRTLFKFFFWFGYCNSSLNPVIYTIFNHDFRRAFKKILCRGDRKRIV

[11] = target: Vasopressin V1a receptor (Homo sapiens, UniProt P37288)
Vasopressin V1a receptor, sequence (P37288 whole entry): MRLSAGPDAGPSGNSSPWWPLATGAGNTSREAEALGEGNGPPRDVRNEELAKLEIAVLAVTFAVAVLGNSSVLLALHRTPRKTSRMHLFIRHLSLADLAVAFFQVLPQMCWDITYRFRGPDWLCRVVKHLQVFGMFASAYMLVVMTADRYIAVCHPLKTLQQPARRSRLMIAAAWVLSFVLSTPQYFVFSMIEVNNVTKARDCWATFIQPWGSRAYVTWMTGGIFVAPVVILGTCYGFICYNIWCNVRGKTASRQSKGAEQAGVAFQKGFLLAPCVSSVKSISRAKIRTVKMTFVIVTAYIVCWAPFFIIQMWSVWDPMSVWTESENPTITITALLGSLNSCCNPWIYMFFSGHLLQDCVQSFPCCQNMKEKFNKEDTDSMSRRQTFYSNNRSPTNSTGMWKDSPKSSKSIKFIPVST

[12] = target: 3',5'-cyclic-AMP phosphodiesterase 4D (Homo sapiens, UniProt Q08499); type: functional
3',5'-cyclic-AMP phosphodiesterase 4D, sequence (Q08499 whole entry): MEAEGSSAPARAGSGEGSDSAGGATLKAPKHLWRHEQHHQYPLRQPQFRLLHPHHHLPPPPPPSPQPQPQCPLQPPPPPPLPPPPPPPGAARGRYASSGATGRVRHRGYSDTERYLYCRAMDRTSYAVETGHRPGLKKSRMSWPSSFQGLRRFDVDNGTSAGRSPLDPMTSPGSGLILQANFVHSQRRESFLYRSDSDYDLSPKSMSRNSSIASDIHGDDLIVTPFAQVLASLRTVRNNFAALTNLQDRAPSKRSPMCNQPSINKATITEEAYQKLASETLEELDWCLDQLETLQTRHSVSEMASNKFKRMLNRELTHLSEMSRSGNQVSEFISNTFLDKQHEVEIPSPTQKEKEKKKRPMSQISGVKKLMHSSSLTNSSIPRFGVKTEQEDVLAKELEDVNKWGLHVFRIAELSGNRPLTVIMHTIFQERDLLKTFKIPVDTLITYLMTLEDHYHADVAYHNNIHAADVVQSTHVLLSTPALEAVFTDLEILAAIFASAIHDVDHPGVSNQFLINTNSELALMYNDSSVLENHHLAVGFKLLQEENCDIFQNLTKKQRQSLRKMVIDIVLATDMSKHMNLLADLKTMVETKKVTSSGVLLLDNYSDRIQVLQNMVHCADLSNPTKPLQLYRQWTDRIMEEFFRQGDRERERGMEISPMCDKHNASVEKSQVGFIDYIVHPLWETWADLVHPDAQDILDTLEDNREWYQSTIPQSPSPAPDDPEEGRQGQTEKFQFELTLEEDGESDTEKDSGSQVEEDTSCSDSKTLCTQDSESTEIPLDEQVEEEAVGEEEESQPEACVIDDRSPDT

[13] = target: Histamine H1 receptor (Homo sapiens, UniProt P35367)
Histamine H1 receptor, sequence (P35367 whole entry): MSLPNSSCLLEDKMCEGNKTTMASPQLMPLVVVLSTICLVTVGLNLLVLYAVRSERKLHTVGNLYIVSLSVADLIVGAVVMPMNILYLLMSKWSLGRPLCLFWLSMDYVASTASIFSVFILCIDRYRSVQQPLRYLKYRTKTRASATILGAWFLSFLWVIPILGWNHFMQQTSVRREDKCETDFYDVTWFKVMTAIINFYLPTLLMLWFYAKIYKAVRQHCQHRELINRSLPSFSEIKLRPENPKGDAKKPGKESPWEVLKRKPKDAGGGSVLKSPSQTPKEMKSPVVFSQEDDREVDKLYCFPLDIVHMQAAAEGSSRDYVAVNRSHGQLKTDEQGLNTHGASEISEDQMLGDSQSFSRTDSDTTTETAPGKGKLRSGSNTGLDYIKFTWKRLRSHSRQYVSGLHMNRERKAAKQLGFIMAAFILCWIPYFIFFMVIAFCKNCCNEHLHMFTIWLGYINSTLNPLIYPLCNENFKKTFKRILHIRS
Further: assay procedure not described here.

SMILES	AC50 [1] [µM]	AC50 [2] [µM]	AC50 [3] [µM]	AC50 [4] [µM]	AC50 [5] [µM]	AC50 [6] [µM]	AC50 [7] [µM]	AC50 [8] [µM]	AC50 [9] [µM]	AC50 [10] [µM]	AC50 [11] [µM]	AC50 [12] [µM]	AC50 [13] [µM]
CN1CCCN=C1/C=C/c1cccc(O)c1 [OXANTEL]	> 30	> 30	> 30	> 30	> 30	> 30	> 30	> 30	> 30	> 30	> 30	17	–
CCCCCCOC(=O)NC(=N)c1ccc(NCc2nc3cc(C(=O)N(CCC(=O)OCC)c4ccccn4)ccc3n2C)cc1 [DABIGATRAN ETEXILATE]	> 30	> 30	> 30	–	–	> 30	> 30	> 30	> 30	> 30	> 30	> 30	> 30
N=C(N)NC(=O)Cc1c(Cl)cccc1Cl [GUANFACINE]	> 10	> 30	0.358	> 30	> 30	> 30	–	5.4	> 30	–	> 30	> 30	–
CCN(CC)CC(=O)Nc1c(C)cccc1C [LIDOCAINE]	–	–	–	–	–	> 30	–	–	–	–	> 10	> 10	–
CCN(CC)Cc1nccn1-c1ccc([N+](=O)[O-])cc1C(=O)c1ccccc1Cl [NIZOFENONE]	> 30	> 30	> 30	> 30	> 30	> 30	> 30	> 30	> 30	> 30	> 30	> 30	> 30
CNCCc1ccccn1 [BETAHISTINE]	–	> 30	> 30	> 30	> 30	> 30	> 30	> 30	> 30	> 30	–	> 30	–
CC(=O)OCC1=C(C(=O)O)N2C(=O)[C@@H](NC(=O)Cc3cccs3)[C@H]2SC1 [CEPHALOTHIN]	> 30	> 30	> 30	–	> 30	> 30	> 30	> 30	> 30	> 30	> 30	> 30	> 30
COc1nc(C)nc(Cl)c1N=C1NCCN1 [MOXONIDINE]	> 30	> 30	> 30	> 30	> 30	> 30	> 30	6.5	> 30	–	–	> 30	–
CC(=O)Oc1cccc2c1C(=O)c1c(OC(C)=O)cc(C(=O)O)cc1C2=O [DIACEREIN]	> 30	–	> 10	> 30	> 30	28	–	18	> 30	12	25	8.8	> 30
CO/N=C(\C(=O)N[C@@H]1C(=O)N2C(C(=O)[O-])=C(C[n+]3ccc(N)n3CCO)CS[C@H]12)c1csc(N)n1 [CEFOSELIS]	> 30	> 30	> 30	> 30	> 30	> 30	> 30	> 30	> 30	> 30	> 30	> 30	> 30
CCc1ccc(C(=O)C(C)CN2CCCCC2)cc1 (centres undefined) [EPERISONE]	> 30	2.2	> 30	> 30	–	> 30	> 30	> 30	> 30	> 30	–	> 30	–
COc1ccc(-n2nc(C(N)=O)c3c2C(=O)N(c2ccc(N4CCCCC4=O)cc2)CC3)cc1 [APIXABAN]	> 30	> 30	> 30	–	> 30	> 30	> 30	> 30	> 30	> 30	> 30	> 30	> 30
CCC(NC(C)C)C(O)c1ccc(O)c(O)c1 (centres undefined) [ISOETHARINE]	–	> 30	> 30	> 30	–	> 30	> 30	> 30	> 30	> 30	> 30	> 30	> 30
COC(=O)c1ccc2c(c1)NC(=O)/C2=C(\Nc1ccc(N(C)C(=O)CN2CCN(C)CC2)cc1)c1ccccc1 [NINTEDANIB]	> 30	> 30	> 30	–	> 30	> 10	> 30	> 30	> 30	> 30	> 30	> 30	> 30
CC(NC(C)(C)C)C(=O)c1cccc(Cl)c1 (centres undefined) [BUPROPION]	> 10	> 10	> 10	> 10	> 30	> 30	> 10	> 10	–	> 10	> 10	–	–
Nc1ccc(S(=O)(=O)Nc2ncccn2)cc1 [SULFADIAZINE]	> 10	> 10	> 10	> 10	–	> 10	> 10	> 10	> 10	> 10	–	> 30	–
CC1=C(CC(=O)O)c2cc(F)ccc2/C1=C\c1ccc([S+](C)[O-])cc1 (centres undefined)	> 10	> 10	> 10	> 10	> 30	> 30	> 10	> 10	> 10	> 10	> 30	> 30	–
CC(=O)OCC1=C(C(=O)O)N2C(=O)[C@@H](NC(=O)CSc3ccncc3)[C@H]2SC1 [CEPHAPIRIN]	> 10	> 10	> 10	> 10	–	> 10	> 10	> 10	> 10	> 10	> 10	> 30	> 10

From ChEMBL document CHEMBL5291721, “A preclinical secondary pharmacology resource illuminates target-adverse drug reaction associations of marketed drugs” (Nat Commun, 2023)
